Measured values as given in patent EP0450097B1, “BENZOHETEROCYCLIC COMPOUNDS” (OTSUKA PHARMACEUTICAL CO., LTD., priority 1989, dated 1991).

What was measured:
V₂ receptor = molecular target: T1, V₂ receptor (Rattus norvegicus, UniProt Q00788); assay: V₂ receptor binding assay ([³H]-Arg-vasopressin, rat kidney plasma membrane preparations); conditions: 4°C for 3 hours
T1 construct: Using rat kidney plasma membrane preparations; from tissue; host or cells: rat kidney plasma membranes
Method in brief: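 IC₅₀ reflects displacement of [³H]-vasopressin bound to rat kidney plasma membrane preparations, with excess vasopressin (10⁻⁶ M) defining nonspecific binding. Membrane-bound label separated by glass-filter (GF/F) filtration and measured by scintillation counting.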

SD rats = assay: Anti-antidiuretic activity (effect on endogenous ADH), amount of urine; type: in vivo; conditions: for ED (3-fold urine volume): Rattus norvegicus, iv, read-out: ED₃
From the text: […] During this measurement, the rats are allowed to take water and feed freely.
The amount of urine of control rats (solvent-treated group) is regarded as 100 %, and the results are expressed as ED₃ value, which is the dose of the test compound to be required to excrete the urine by three times than that of the control rats.

V₁ receptor = molecular target: T2, V₁ receptor (Rattus norvegicus, UniProt P30560); assay: V₁ receptor binding assay ([³H]-Arg-vasopressin, rat liver plasma membrane preparations); conditions: 37°C for 10 minutes
T2 construct: Using rat liver plasma membrane preparations; from tissue; host or cells: rat liver plasma membranes
Description: Using rat liver plasma membrane preparations prepared according to Ichihara's method [cf: Akira Ichihara, J. Bio. Chem., 258, 9283 (1983)], the plasma membrane (50000dpm, 2x10⁻¹⁰ M) of [³H]-Arg-vasopressin and a test compound (60 µg, 10⁻⁸-10⁻⁴ M) are incubated at 37°C for 10 minutes in 100 mM Tris-HCl buffer (pH: 8.0, 250 µl) containing 5 mM MgCl₂, 1 mM EDTA and 0.1 % BSA. After incubation, the mixture is filtered three times using the glass filter (GF/F) so as to separate the membrane preparation combined with vasopressin and then washed with the buffer (5 ml). This glass filter is taken out and mixed with liquid scintillation cocktail. The amount of [³H]-vasopressin combined with the membrane is measured by liquid scintillation counter and the rate of the inhibitory effect of the test compound is estimated according to the following equation. Rate of the inhibitory effect (%) = 100 -(C1 - B1)/(C0 - B1)X 100 [formula] C¹: The amount of [³H]-vasopressin combined with the membrane in the presence of the test compound (in prescribed amount). C⁰: The amount of [³H]-vasopressin combined with the membrane in the absence of the test compound. B¹: The amount of [³H]-vasopressin combined with the membrane in the presence of the excess amount of vasopressin (10⁻⁶ M).
The results are expressed as IC₅₀ values, which is the concentration of the test compound required to achieve the inhibitory effect in the rate of 50 %.

[1] = administered into a caudal vein, urine collected for 2 hours, dose to excrete the urine by three times that of control rats, solvent dimethylformamide

T2 sequence (P30560 whole entry): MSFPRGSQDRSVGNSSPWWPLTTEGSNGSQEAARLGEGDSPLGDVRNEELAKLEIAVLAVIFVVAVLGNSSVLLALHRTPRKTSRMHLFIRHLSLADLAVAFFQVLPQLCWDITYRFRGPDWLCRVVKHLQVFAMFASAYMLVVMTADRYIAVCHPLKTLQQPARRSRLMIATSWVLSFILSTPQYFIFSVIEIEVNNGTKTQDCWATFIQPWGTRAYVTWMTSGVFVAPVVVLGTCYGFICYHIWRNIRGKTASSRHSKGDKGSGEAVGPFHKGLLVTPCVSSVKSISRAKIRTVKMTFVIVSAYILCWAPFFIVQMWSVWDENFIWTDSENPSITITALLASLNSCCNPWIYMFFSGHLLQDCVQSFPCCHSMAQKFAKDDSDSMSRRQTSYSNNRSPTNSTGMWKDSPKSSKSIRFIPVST
T1 sequence (Q00788 whole entry): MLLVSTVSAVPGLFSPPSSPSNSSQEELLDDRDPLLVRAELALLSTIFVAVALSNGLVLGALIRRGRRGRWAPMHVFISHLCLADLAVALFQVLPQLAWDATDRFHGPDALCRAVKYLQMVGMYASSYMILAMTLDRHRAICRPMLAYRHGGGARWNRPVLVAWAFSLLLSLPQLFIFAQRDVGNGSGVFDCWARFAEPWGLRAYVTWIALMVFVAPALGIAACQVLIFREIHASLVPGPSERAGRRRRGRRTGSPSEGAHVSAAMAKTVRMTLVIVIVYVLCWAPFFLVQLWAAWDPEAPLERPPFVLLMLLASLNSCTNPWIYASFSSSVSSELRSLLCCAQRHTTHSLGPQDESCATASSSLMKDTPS

| SMILES | IC50 (V₂ receptor) [µM] | IC50 (V₁ receptor) [µM] | ED (3-fold urine volume) (SD rats; [1]) [mg/kg] | ED₃ (SD rats; [1]) [mg/kg] | ED₃ (SD rats; as E3, but physiological saline solution used as solvent instead of dimethylformamide) |
| --- | --- | --- | --- | --- | --- |
| Cc1cccc(C(=O)Nc2ccc(C(=O)N3CCCc4ccccc43)cc2)c1C [compound 6] | 0.076 |  | 10 |  |  |
| Cc1ccccc1C(=O)Nc1ccc(C(=O)N2CCC(O)Cc3ccccc32)cc1 (stereo not shown) [compound 214] | 0.058 | 0.27 |  |  |  |
| CC(=O)OCC1CCCN(C(=O)c2ccc(NC(=O)c3ccccc3C)cc2)c2ccccc21 (stereo not shown) [compound 231] | 0.007 | 0.16 |  |  |  |
| Cc1ccccc1C(=O)Nc1ccc(C(=O)N2CCCC(COS(C)(=O)=O)c3ccccc32)cc1 (stereo not shown) [compound 235] | 0.006 | 0.088 |  |  |  |
| COc1cc(NC(=O)c2ccccc2C)ccc1C(=O)N1CCCC(O)c2ccccc21 (stereo not shown) [compound 238] | 0.02 | 0.39 |  |  |  |
| Cc1ccccc1C(=O)Nc1ccc(C(=O)N2CCCC(CN)c3ccccc32)cc1 (stereo not shown) [compound 244] | 0.018 | 0.23 |  |  |  |
| Cc1ccccc1C(=O)Nc1ccc(C(=O)N2CCCC(N(C)C)c3ccccc32)cc1 (stereo not shown) [compound 249] |  |  |  |  | 0.4 ^*) mg/kg |
| Cc1ccccc1C(=O)Nc1ccc(C(=O)N2CCC(C)C(O)c3ccccc32)cc1 (stereo not shown) [compound 256] | 0.004 | 0.049 |  |  |  |
| Cc1ccccc1C(=O)Nc1ccc(C(=O)N2CCCC(N(C)CC(N)=O)c3ccccc32)cc1 (stereo not shown) [compound 266] | 0.013 | 0.29 |  |  |  |
| Cc1ccccc1C(=O)Nc1ccc(C(=O)N2CCCC(NC3CCN(Cc4ccccc4)CC3)c3ccccc32)cc1 (stereo not shown) [compound 274] | 0.024 | 0.11 |  |  |  |
| Cc1ccccc1C(=O)Nc1ccc(C(=O)N2CCCC(OC(=O)CN(C)C)c3ccccc32)cc1 (stereo not shown) [compound 275] | 0.018 | 0.18 |  |  |  |
| Cc1ccccc1C(=O)Nc1ccc(C(=O)N2CCCC(OCC(=O)N3CCN(C)CC3)c3ccccc32)cc1 (stereo not shown) [compound 277] | 0.016 | 0.23 |  |  |  |
| Cc1ccccc1C(=O)Nc1ccc(C(=O)N2CCCC(OCC(=O)N3CCOCC3)c3ccccc32)cc1 (stereo not shown) [compound 278] | 0.013 | 0.3 |  |  |  |
| Cc1ccccc1C(=O)Nc1ccc(C(=O)N2CCCC(NC(=O)Nc3ccccc3)c3ccccc32)cc1 (stereo not shown) [compound 280] | 0.045 | 0.47 |  |  |  |
| Cc1ccccc1C(=O)Nc1ccc(C(=O)N2CCCC(OCC(=O)N3CC[S+]([O-])CC3)c3ccccc32)cc1 (stereo not shown) [compound 281] | 0.011 | 0.18 |  |  |  |
| Cc1ccccc1C(=O)Nc1ccc(C(=O)N2CCCC(OCC(=O)NCC(N)=O)c3ccccc32)cc1 (stereo not shown) [compound 285] | 0.008 | 0.18 |  |  |  |
| CNC1CCCN(C(=O)c2ccc(NC(=O)c3ccccc3C)cc2)c2ccc(Cl)cc21 (stereo not shown) [compound 287] | 0.007 | 0.064 |  |  |  |
| Cc1ccccc1C(=O)Nc1ccc(C(=O)N2CCCC(OCC(=O)NCc3ccncc3)c3ccccc32)cc1 (stereo not shown) [compound 290] | 0.021 | 0.21 |  |  |  |
| Cc1ccccc1C(=O)Nc1ccc(C(=O)N2CCCC(OCC(=O)N(C)CCO)c3ccccc32)cc1 (stereo not shown) [compound 293] | 0.065 | 0.19 |  |  |  |
| CN(C)c1ccccc1C(=O)Nc1ccc(C(=O)N2CCCC(N(C)C)c3ccccc32)cc1 (stereo not shown) [compound 298] | 0.1 | 0.29 |  |  |  |
| Cc1ccccc1C(=O)Nc1ccc(C(=O)N2CCCC(N(C)C)c3cc(Cl)ccc32)cc1 (stereo not shown) [compound 303] | 0.025 | 0.19 |  |  |  |
| CN(C)C1CCCN(C(=O)c2ccc(NC(=O)c3ccccc3Cl)cc2)c2ccc(Cl)cc21 (stereo not shown) [compound 304] | 0.024 | 0.21 |  |  |  |
| CCN(CC(=O)Nc1ccc(C(=O)N2CCCC(NC)c3cc(Cl)ccc32)cc1)c1ccccc1 (stereo not shown) [compound 307] | 0.01 | 0.024 |  |  |  |
| Cc1ccccc1C(=O)Nc1ccc(C(=O)N2CCCC(NC3CC3)c3cc(Cl)ccc32)cc1 (stereo not shown) [compound 310] | 0.008 | 0.065 |  |  |  |
| O=C(Nc1ccc(C(=O)N2CCCC(NC3CC3)c3cc(Cl)ccc32)cc1)c1ccccc1Cl (stereo not shown) [compound 311] | 0.013 | 0.078 |  |  |  |
| CC(C)NCCCCOc1ccccc1C(=O)Nc1ccc(C(=O)N2CCCC(O)c3ccccc32)cc1 (stereo not shown) [compound 312] | 0.29 | 0.056 |  |  |  |
| CCN(CC(=O)Nc1ccc(C(=O)N2CCCC(OCC(=O)N(C)C)c3ccccc32)cc1)c1ccccc1 (stereo not shown) [compound 313] | 0.012 | 0.032 |  |  |  |
| CN(C)C1CCCN(C(=O)c2ccc(NC(=O)CNc3ccccc3Cl)cc2)c2ccccc21 (stereo not shown) [compound 315] | 0.025 | 0.38 |  |  |  |
| Cc1ccccc1NCC(=O)Nc1ccc(C(=O)N2CCCC(N(C)C)c3ccccc32)cc1 (stereo not shown) [compound 316] | 0.06 | 0.47 |  |  |  |
| COc1cc(C(=O)N2CCCC(NC3CC3)c3cc(Cl)ccc32)ccc1NC(=O)c1ccccc1Cl (stereo not shown) [compound 322] | 0.025 | 0.044 |  |  |  |

The next lines start with results.

| IC50 (V₂ receptor) [µM] | IC50 (V₁ receptor) [µM] | SMILES | ED (3-fold urine volume) (SD rats; [1]) [mg/kg] | ED₃ (SD rats; [1]) [mg/kg] | ED₃ (SD rats; as E3, but physiological saline solution used as solvent instead of dimethylformamide) |
| --- | --- | --- | --- | --- | --- |
| 0.007 | 0.092 | Cc1cccc(C(=O)Nc2ccc(C(=O)N3CCCCc4ccccc43)cc2)c1C [compound 33] | 1.9 |  |  |
| 0.012 |  | O=C(Nc1ccc(C(=O)N2CCCC(O)c3ccccc32)cc1)c1cc(Cl)cc(Cl)c1 (stereo not shown) [compound 178] |  | 4.2 |  |
| 0.006 | 0.13 | Cc1ccccc1C(=O)Nc1ccc(C(=O)N2CCCC(CO)c3ccccc32)cc1 (stereo not shown) [compound 215] |  |  |  |
| 0.01 | 0.096 | CCN(CC(=O)Nc1ccc(C(=O)N2CCCC(O)c3ccccc32)c(Cl)c1)c1ccccc1 (stereo not shown) [compound 222] |  |  |  |
| 0.12 | 0.19 | Cc1ccccc1C(=O)Nc1ccc(C(=O)N2CCCC(CN=[N+]=[N-])c3ccccc32)cc1 (stereo not shown) [compound 250] |  |  |  |
| 0.063 | 0.36 | O=C(Nc1ccc(C(=O)N2CCCC(NCc3ccccc3)c3ccccc32)cc1)c1ccccc1Cl (stereo not shown) [compound 252] |  |  |  |
| 0.005 | 0.046 | CC(=O)NCC1CCCN(C(=O)c2ccc(NC(=O)c3ccccc3C)cc2)c2ccccc21 (stereo not shown) [compound 255] |  |  |  |
| 0.003 | 0.48 | Cc1ccccc1C(=O)Nc1ccc(C(=O)N2CCCC(CNC=O)c3ccccc32)cc1 (stereo not shown) [compound 269] |  |  |  |
| 0.008 | 0.15 | Cc1ccccc1C(=O)Nc1ccc(C(=O)N2CCCC(OCC(=O)N3CCSCC3)c3ccccc32)cc1 (stereo not shown) [compound 279] |  |  |  |
| 0.019 | 0.29 | Cc1ccccc1C(=O)Nc1ccc(C(=O)N2CCCC(OCC(=O)N3CCCC3C(N)=O)c3ccccc32)cc1 (stereo not shown) [compound 284] |  |  |  |
| 0.019 | 0.4 | Cc1ccccc1C(=O)Nc1ccc(C(=O)N2CCCC(OCC(=O)N3CCS(=O)(=O)CC3)c3ccccc32)cc1 (stereo not shown) [compound 286] |  |  |  |
| 0.015 | 0.26 | CC(=O)N1CCN(C(=O)COC2CCCN(C(=O)c3ccc(NC(=O)c4ccccc4C)cc3)c3ccccc32)CC1 (stereo not shown) [compound 288] |  |  |  |
| 0.011 | 0.071 | CNC1CCCN(C(=O)c2ccc(NC(=O)c3ccccc3Cl)cc2)c2ccc(Cl)cc21 (stereo not shown) [compound 302] |  |  |  |
| 0.023 | 0.11 | CCN(CC(=O)Nc1ccc(C(=O)N2CCCC(N(C)C)c3cc(Cl)ccc32)cc1)c1ccccc1 (stereo not shown) [compound 308] |  |  |  |
| 0.015 | 0.43 | CN(C)C1CCCN(C(=O)c2ccc(NC(=O)c3ccccc3Br)cc2)c2ccccc21 (stereo not shown) [compound 309] |  |  |  |
| 0.012 | 0.059 | CNC1CCCN(C(=O)c2ccc(NC(=O)c3ccccc3Cl)c(OC)c2)c2ccc(Cl)cc21 (stereo not shown) [compound 321] |  |  |  |
| 0.014 | 0.064 | CNC1CCCN(C(=O)c2ccc(NC(=O)c3ccccc3C)c(OC)c2)c2ccc(Cl)cc21 (stereo not shown) [compound 323] |  |  |  |
